Results reported in the supplement of paper PMC10307832.

Tests used:
Assay in all cases: relative viability (nuclei count vs DMSO), 5 days (fraction); higher = more cells survive
JZL-184 + Tozasertib = compound: C1CN(CCC1C(C2=CC3=C(C=C2)OCO3)(C4=CC5=C(C=C4)OCO5)O)C(=O)OC6=CC=C(C=C6)[N+](=O)[O-] [JZL-184] + Cc1cc(Nc2cc(N3CCN(C)CC3)nc(Sc3ccc(NC(=O)C4CC4)cc3)n2)n[nH]1 [Tozasertib] (partner 0.1 µM)
In short: (§1)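 Relative viability was taken as the ratio of nuclei in treated wells to nuclei in vehicle wells. Lung cancer cell lines in 1536-well plates received compounds by pin tool one day after seeding, either one drug alone or a fixed anchor-drug dose plus five library-drug doses (not always all listed) in √10 steps. Nuclei were counted on 4× images after 5 days of treatment, and values are medians of duplicate plates.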

JZL-184 + Palbociclib = compound: C1CN(CCC1C(C2=CC3=C(C=C2)OCO3)(C4=CC5=C(C=C4)OCO5)O)C(=O)OC6=CC=C(C=C6)[N+](=O)[O-] [JZL-184] + CC(=O)c1c(C)c2cnc(Nc3ccc(N4CCNCC4)cn3)nc2n(C2CCCC2)c1=O [Palbociclib] (partner 0.5 µM)
In short: as §1

JZL-184 + Pemetrexed = compound: C1CN(CCC1C(C2=CC3=C(C=C2)OCO3)(C4=CC5=C(C=C4)OCO5)O)C(=O)OC6=CC=C(C=C6)[N+](=O)[O-] [JZL-184] + Nc1nc2[nH]cc(CCc3ccc(C(=O)N[C@@H](CCC(=O)O)C(=O)O)cc3)c2c(=O)[nH]1 [Pemetrexed] (partner 0.2 µM)
In short: as §1

JZL-184 + OSI-027 = compound: C1CN(CCC1C(C2=CC3=C(C=C2)OCO3)(C4=CC5=C(C=C4)OCO5)O)C(=O)OC6=CC=C(C=C6)[N+](=O)[O-] [JZL-184] + COc1cccc2cc(-c3nc([C@H]4CC[C@H](C(=O)O)CC4)n4ncnc(N)c34)[nH]c12 [OSI-027] (partner 0.5 µM)
In short: as §1

JZL-184 + Bortezomib = compound: C1CN(CCC1C(C2=CC3=C(C=C2)OCO3)(C4=CC5=C(C=C4)OCO5)O)C(=O)OC6=CC=C(C=C6)[N+](=O)[O-] [JZL-184] + CC(C)C[C@H](NC(=O)[C@H](Cc1ccccc1)NC(=O)c1cnccn1)B(O)O [Bortezomib] (partner 0.002 µM)
In short: as §1

| Cell Line | relative viability (JZL-184 + Tozasertib; first compound 0.04 µM) | relative viability (JZL-184 + Tozasertib; first compound 0.4 µM) | relative viability (JZL-184 + Tozasertib; first compound 1.265 µM) | relative viability (JZL-184 + Tozasertib; first compound 4 µM) | relative viability (JZL-184 + Palbociclib; first compound 0.04 µM) | relative viability (JZL-184 + Palbociclib; first compound 0.4 µM) | relative viability (JZL-184 + Palbociclib; first compound 1.265 µM) | relative viability (JZL-184 + Palbociclib; first compound 4 µM) | relative viability (JZL-184 + Pemetrexed; first compound 0.04 µM) | relative viability (JZL-184 + Pemetrexed; first compound 0.4 µM) | relative viability (JZL-184 + Pemetrexed; first compound 1.265 µM) | relative viability (JZL-184 + Pemetrexed; first compound 4 µM) | relative viability (JZL-184 + OSI-027; first compound 0.04 µM) | relative viability (JZL-184 + OSI-027; first compound 0.4 µM) | relative viability (JZL-184 + OSI-027; first compound 1.265 µM) | relative viability (JZL-184 + OSI-027; first compound 4 µM) | relative viability (JZL-184 + Bortezomib; first compound 0.04 µM) | relative viability (JZL-184 + Bortezomib; first compound 0.4 µM) | relative viability (JZL-184 + Bortezomib; first compound 1.265 µM) | relative viability (JZL-184 + Bortezomib; first compound 4 µM) |
| --- | --- | --- | --- | --- | --- | --- | --- | --- | --- | --- | --- | --- | --- | --- | --- | --- | --- | --- | --- | --- |
| NCI-H2009 | 0.798 | 0.699 | 0.758 | 0.651 | 0.172 | 0.188 | 0.241 | 0.219 | 1.14 | 1.03 | 1.04 | 0.994 | 0.764 | 0.574 | 0.694 | 0.653 | 1.2 | 0.946 | 1.02 | 0.938 |
| HCC-78 | 0.402 | 0.413 | 0.388 | 0.318 | 0.425 | 0.425 | 0.452 | 0.471 | 0.895 |  | 0.875 | 0.919 | 0.348 | 0.326 | 0.379 | 0.382 | 0.384 | 0.521 | 0.667 | 0.516 |
| NCI-H2170 | 0.83 | 0.646 | 0.787 | 0.66 | 0.439 | 0.37 | 0.407 | 0.366 | 0.267 | 0.258 | 0.252 | 0.286 | 0.721 | 0.758 | 0.759 | 0.682 |  |  |  |  |
| NCI-H1793 | 0.289 | 0.385 | 0.409 | 0.233 | 0.271 | 0.285 | 0.281 | 0.312 | 0.936 | 0.801 | 0.982 | 0.735 | 0.26 | 0.263 | 0.319 | 0.259 |  |  |  |  |
| HCC-366 | 0.133 | 0.508 | 0.109 | 0.0909 | 0.426 | 0.374 | 0.394 | 0.322 | 0.175 | 0.146 | 0.137 | 0.161 | 1.04 | 0.868 | 0.97 | 0.825 | 1.26 | 1.01 | 1.09 | 0.978 |
| NCI-H1651 | 0.771 | 0.703 | 0.689 | 0.668 | 0.547 | 0.529 | 0.558 | 0.519 | 0.592 | 0.362 | 0.411 | 0.595 | 0.684 | 0.664 | 0.855 | 0.794 | 0.993 | 0.954 | 1 | 0.999 |
| LC-2-ad | 0.451 | 0.429 | 0.511 | 0.385 | 0.579 | 0.504 | 0.488 | 0.484 | 0.293 | 0.278 | 0.279 | 0.265 | 0.92 | 0.926 | 0.907 | 0.734 | 1.16 | 0.868 | 0.99 | 0.942 |
| HCC-827 | 0.421 | 0.383 | 0.449 | 0.411 | 0.52 | 0.441 | 0.555 | 0.48 | 0.222 | 0.199 | 0.178 | 0.261 | 0.954 | 0.769 | 0.798 | 0.707 | 1.11 | 0.911 | 1.07 | 1.02 |
| ABC-1 | 0.195 | 0.202 | 0.174 | 0.164 | 0.861 | 0.641 | 0.399 | 0.696 |  |  |  |  | 0.644 | 0.441 | 0.667 | 0.448 | 0.336 | 0.352 | 0.375 | 0.247 |
| NCI-H1703 |  |  |  |  |  |  |  |  |  |  |  |  |  |  |  |  | 0.349 | 0.213 | 0.359 | 0.467 |
| NCI-H2342 | 0.432 | 0.399 | 0.485 | 0.449 | 0.563 | 0.535 | 0.522 | 0.529 | 0.654 | 0.732 | 0.78 | 0.778 | 0.614 | 0.548 | 0.617 | 0.704 |  |  |  |  |
| SW 900 | 0.497 | 0.459 | 0.605 | 0.482 | 0.548 | 0.513 | 0.558 | 0.521 | 0.496 | 0.482 | 0.537 | 0.491 | 0.596 | 0.536 | 0.566 | 0.5 |  |  |  |  |
| NCI-H522 | 0.668 | 0.5 | 0.618 | 0.563 | 1.23 | 0.936 | 1.13 | 0.903 | 1.23 | 0.981 | 1.02 | 1.16 | 0.906 | 0.748 | 0.748 | 0.748 |  |  |  |  |
| NCI-H727 | 0.594 | 0.568 | 0.777 | 0.583 | 0.64 | 0.708 | 0.63 | 0.738 |  |  |  |  | 0.665 | 0.592 | 0.591 | 0.582 | 0.988 | 0.689 | 0.797 | 0.802 |
| NCI-H1792 |  |  |  |  | 0.677 | 0.687 | 0.659 | 0.656 | 1.05 | 0.699 | 1.1 | 0.812 | 0.683 | 0.744 | 0.779 | 0.62 | 1.13 | 0.405 | 0.954 | 0.952 |
| IA-LM |  |  |  |  |  |  |  |  |  |  |  |  |  |  |  |  | 1.04 | 0.786 | 0.844 | 0.866 |
| NCI-H358 | 0.104 | 0.118 | 0.0969 | 0.101 | 0.138 | 0.142 | 0.137 | 0.129 | 0.195 | 0.162 | 0.181 | 0.163 | 0.826 | 0.716 | 0.79 | 0.712 |  |  |  |  |
| NCI-H596 | 0.878 | 0.932 | 0.861 | 0.931 |  |  |  |  | 0.543 | 0.411 | 0.452 | 0.48 | 0.749 | 0.591 | 0.71 | 0.696 | 1.21 | 0.948 | 1.17 | 1.08 |
| NCI-H1563 |  |  |  |  |  |  |  |  | 0.851 | 0.776 | 0.821 | 0.739 | 0.794 | 0.729 | 0.776 | 0.7 | 0.79 | 0.797 | 0.86 | 0.933 |
